We go through 15 compounds from patent publication US10071984B2, “Histone demethylase inhibitors” (Celgene Quanticel Research, Inc., priority 2014, dated 2018).

A value given as a limit tells only on which side of the number the result lay.

Common to all, as to assay type: biochemical
Experiment [1] deals with FBXL10 (Homo sapiens (Human), UniProt Q8NHM5). The experiment in a line: FBXL10 in vitro enzyme inhibition assay (AlphaScreen). The following applies: 0.3 nM FBXL10, H3K36me2-biotin peptide. An excerpt:
(§1) This assay determines the ability of a test compound to inhibit FBXL11, FBXL10, and PHF8 demethylase activity. Baculovirus expressed FBXL11 (GenBank Accession #NM_012308, AA1-1162) was purchased from BPS Bioscience (Cat#50102). Baculovirus expressed FBXL10 (GenBank Accession #NM_032590, AA 1-650) was purchased from BPS Bioscience (Cat #50120). Baculovirus expressed PHF8 (GenBank Accession NP_055922.1) was purchased from Active Motif (Cat#31435).
(§2) The ability of test compounds to inhibit the activity of FBXL10 was determined in 384-well plate format under the following reaction conditions: 0.3 nM FBXL10, 30 nM H3K36me2-biotin labeled peptide (Anaspec cat #64442), 0.2 μM alpha-ketoglutaric acid in assay buffer of 50 mM HEPES, pH7.3, 0.005% Brij35, 0.5 mM TCEP, 0.2 mg/ml BSA, 50 μM sodium L-ascorbate, 5 μM ammonium iron(II) sulfate. Reaction product is determined quantitatively by AlphaScreen detection after the addition of detection reagents anti-H3K36me1 antibody, AlphaScreen® Streptavidin-coated Donor beads, and AlphaScreen® Protein A Acceptor beads in 50 mM HEPES, pH7.3, 10 mM NaCl, 0.005% Brij35, 5 mM EDTA, 2 mg/ml BSA to final 10 μg/ml beads.
(§3) The assay reaction was initiated by the following: 3 μl of the mixture of 90 nM H3K36me2-biotin labeled peptide and 0.6 μM alpha-ketoglutaric acid with 3 μl of 11-point serial diluted inhibitor in 3% DMSO are added to each well of 384 well Proxiplate (Perkin Elmer), followed by the addition of 3 μl of 0.9 nM FBXL10 to initiate the reaction. The reaction mixture is incubated at room temperature for 1 hour, and terminated by the addition of 3 μl of appropriate dilution of anti H3K36me1 antibody in 50 mM HEPES, pH7.3, 10 mM NaCl, 0.005% Brij35, 5 mM EDTA, 2 mg/ml BSA. Plates will then incubated at room temperature for 40 minutes, followed by addition of 3 ul of 50 μg/ml AlphaScreen® Streptavidin-coated Donor beads and AlphaScreen® Protein A Acceptor beads in 50 mM HEPES, pH7.3, 10 mM NaCl, 0.005% Brij35, 5 mM EDTA, 2 mg/ml BSA. Plates will then be read by EnVision Multilabel Reader in AlphaScreen mode after minimum 2 hour incubation at room temperature. The AlphaScreen signal for each well is used to determine inhibition constant (IC50).
(§4) The ability of the compounds disclosed herein to inhibit demethylase activity was quantified and the respective IC50 value was determined.
In general terms: Bead proximity is the source of the signal in Alpha formats.

Experiment [2] concerns the target FBXL11 (Homo sapiens (Human), UniProt Q9Y2K7). Briefly: FBXL11 in vitro enzyme inhibition assay (AlphaScreen). To be noted: 0.15 nM FBXL11, H3K36me2-biotin peptide.
Description: as §1
as §2, with “FBXL11” for “FBXL10”, “0.15” for “0.3”, “FBXL11,” for “FBXL10,”
as §3, with “0.45” for “0.9”, “FBXL11” for “FBXL10”
The ability of the compounds disclosed herein to inhibit demethylase activity was quantified and the respective IC50 value was determined. Table 3 provides the IC50 values of various compounds disclosed herein.

For experiment [3], the target named is PHF8 (Homo sapiens (Human), UniProt Q9UPP1). Briefly: PHF8 in vitro enzyme inhibition assay (TR-FRET). To be noted: 3 nM PHF8, H3K9me1-biotin peptide.
Sequence of PHF8 (Q9UPP1 37-1060): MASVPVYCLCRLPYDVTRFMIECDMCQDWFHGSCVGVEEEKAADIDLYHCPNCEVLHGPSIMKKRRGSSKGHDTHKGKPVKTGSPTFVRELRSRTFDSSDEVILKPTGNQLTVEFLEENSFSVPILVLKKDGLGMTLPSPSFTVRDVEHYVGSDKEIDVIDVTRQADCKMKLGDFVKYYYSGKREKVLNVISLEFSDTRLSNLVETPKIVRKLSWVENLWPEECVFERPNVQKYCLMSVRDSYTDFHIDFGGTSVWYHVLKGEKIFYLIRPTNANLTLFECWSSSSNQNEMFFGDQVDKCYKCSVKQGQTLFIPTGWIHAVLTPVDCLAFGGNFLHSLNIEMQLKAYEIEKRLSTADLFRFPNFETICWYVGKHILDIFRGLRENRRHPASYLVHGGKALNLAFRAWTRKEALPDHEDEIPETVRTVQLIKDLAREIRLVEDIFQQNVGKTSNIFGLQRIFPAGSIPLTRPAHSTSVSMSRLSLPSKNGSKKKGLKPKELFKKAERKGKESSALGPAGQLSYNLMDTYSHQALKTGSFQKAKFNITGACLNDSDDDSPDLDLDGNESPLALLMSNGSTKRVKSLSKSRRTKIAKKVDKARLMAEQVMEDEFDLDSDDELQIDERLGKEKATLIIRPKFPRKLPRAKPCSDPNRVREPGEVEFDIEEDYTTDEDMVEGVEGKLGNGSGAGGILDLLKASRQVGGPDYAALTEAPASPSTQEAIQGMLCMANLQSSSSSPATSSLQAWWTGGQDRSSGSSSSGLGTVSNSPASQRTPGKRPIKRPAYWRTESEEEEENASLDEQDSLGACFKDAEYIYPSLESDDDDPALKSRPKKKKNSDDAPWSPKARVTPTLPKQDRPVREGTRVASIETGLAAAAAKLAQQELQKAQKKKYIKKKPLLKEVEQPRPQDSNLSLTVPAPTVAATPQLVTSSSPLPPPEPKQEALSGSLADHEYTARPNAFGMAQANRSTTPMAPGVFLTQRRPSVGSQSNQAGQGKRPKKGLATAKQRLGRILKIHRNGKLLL
Description: as §1
The ability of test compounds to inhibit the activity of PHF8 was determined in 384-well plate format under the following reaction conditions: 3 nM PHF8, 200 nM H3K9me1-biotin labeled peptide (Anaspec cat #64358), 0.5 μM alpha-ketoglutaric acid in assay buffer of 50 mM HEPES, pH7.3, 0.005% Brij35, 0.5 mM TCEP, 0.2 mg/ml BSA, 50 μM sodium L-ascorbate, and 5 μM ammonium iron(II) sulfate. Reaction product was determined quantitatively by TR-FRET after the addition of detection reagent Phycolink Streptavidin-allophycocyanin (Prozyme) and Europium-anti-unmodified-histone H3 lysine 9/lysine27 (H3K9/K27) antibody (PerkinElmer) in the presence of 5 mM EDTA in LANCE detection buffer (PerkinElmer) at a final concentration of 25 nM and 0.5 nM, respectively.
The assay reaction was initiated by the following: 2 μl of the mixture of 600 nM H3K9me1-biotin labeled peptide and 1.5 μM alpha-ketoglutaric acid with 2 μl of 11-point serial diluted inhibitor in 3% DMSO were added to each well of the plate, followed by the addition of 2 μl of 9 nM PHF8 to initiate the reaction. The reaction mixture was incubated at room temperature for 15 minutes, and terminated by the addition of 6 μl of 5 mM EDTA in LANCE detection buffer containing 50 nM Phycolink Streptavidin-allophycocyanin and 1 nM Europium-anti-unmodified H3K9/K27 antibody. Plates were read by EnVision Multilabel Reader in TR-FRET mode (excitation at 320 nm, emission at 615 nm and 665 nm) after 1 hour incubation at room temperature. A ratio was calculated (665/615) for each well and fitted to determine inhibition constant (IC50).
as §4

Sequence of FBXL10 (Q8NHM5 1-650): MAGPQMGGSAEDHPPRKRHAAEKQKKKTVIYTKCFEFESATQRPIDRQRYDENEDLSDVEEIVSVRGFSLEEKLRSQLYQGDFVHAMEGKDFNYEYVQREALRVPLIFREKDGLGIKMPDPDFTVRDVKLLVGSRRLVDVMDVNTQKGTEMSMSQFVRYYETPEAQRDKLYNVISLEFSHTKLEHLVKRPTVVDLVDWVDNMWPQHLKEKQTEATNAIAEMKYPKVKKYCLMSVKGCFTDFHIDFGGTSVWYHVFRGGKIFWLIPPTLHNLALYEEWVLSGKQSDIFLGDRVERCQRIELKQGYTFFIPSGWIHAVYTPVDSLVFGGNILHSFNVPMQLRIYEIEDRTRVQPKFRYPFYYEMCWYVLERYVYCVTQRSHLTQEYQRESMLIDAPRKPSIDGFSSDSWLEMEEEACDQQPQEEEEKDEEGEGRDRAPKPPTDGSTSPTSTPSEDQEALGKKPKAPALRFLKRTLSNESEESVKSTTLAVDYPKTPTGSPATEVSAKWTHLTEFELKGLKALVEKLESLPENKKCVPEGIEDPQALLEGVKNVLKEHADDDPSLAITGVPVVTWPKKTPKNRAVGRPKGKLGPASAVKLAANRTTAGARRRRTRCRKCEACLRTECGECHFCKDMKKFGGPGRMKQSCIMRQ
Sequence of FBXL11 (Q9Y2K7 whole entry): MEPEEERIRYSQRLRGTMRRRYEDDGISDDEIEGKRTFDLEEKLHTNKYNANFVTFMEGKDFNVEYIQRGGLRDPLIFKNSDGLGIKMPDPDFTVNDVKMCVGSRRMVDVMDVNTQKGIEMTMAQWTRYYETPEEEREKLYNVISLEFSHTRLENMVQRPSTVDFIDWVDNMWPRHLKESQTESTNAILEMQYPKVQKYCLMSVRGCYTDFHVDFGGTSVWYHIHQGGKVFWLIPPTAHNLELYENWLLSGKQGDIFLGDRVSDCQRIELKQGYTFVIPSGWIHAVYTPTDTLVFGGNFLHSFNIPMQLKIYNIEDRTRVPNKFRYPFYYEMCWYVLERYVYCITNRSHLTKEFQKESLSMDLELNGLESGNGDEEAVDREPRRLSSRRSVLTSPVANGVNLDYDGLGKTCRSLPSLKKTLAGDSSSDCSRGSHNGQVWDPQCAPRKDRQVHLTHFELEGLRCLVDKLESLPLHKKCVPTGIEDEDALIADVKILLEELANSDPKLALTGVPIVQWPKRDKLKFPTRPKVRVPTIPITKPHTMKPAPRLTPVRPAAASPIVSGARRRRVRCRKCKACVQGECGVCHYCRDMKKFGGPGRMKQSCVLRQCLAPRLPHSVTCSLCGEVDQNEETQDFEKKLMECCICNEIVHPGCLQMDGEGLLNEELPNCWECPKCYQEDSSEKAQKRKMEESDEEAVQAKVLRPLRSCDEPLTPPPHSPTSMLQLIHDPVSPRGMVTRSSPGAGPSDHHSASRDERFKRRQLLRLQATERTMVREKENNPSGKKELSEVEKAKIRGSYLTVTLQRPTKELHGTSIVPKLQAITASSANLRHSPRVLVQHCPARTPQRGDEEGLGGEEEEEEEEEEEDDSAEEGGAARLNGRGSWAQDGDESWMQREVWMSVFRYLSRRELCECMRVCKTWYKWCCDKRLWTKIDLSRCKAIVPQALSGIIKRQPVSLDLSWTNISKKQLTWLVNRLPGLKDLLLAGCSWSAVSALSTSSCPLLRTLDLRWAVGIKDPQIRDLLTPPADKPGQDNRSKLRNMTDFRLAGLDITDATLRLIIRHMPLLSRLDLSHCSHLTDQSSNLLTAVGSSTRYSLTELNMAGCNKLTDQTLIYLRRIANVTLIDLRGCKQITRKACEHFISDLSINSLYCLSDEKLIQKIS

The term IC50 denotes the concentration that gives 50% inhibition. A low value points to higher potency. In the case of `CCOc1ccccc1CCn1cnc(-c2cc(-c3c[nH]nn3)ccn2)c1` [Example 9, 2-[1-[2-(2-ethoxyphenyl)ethyl]imidazol-4-yl]-4-(1H-triazol-4-yl)pyridine], the 50% inhibitory concentration (IC50) in experiment [1] was at most 100 nM; in experiment [2], at most 100 nM; in experiment [3], 100 to 1000 nM.

With `FC(F)(F)c1cccc(Cn2cnc(-c3cc(-c4c[nH]nn4)ccn3)c2)c1Cl` [Example 22, 2-[1-[[2-chloro-3-(trifluoromethyl)phenyl]methyl]imidazol-4-yl]-4-(1H-triazol-4-yl)pyridine], the IC50 is at most 100 nM in experiment [1], at most 100 nM in experiment [2] and 100 to 1000 nM in experiment [3].

For the compound `c1ccc2c(CCn3cnc(-c4cc(-c5c[nH]nn5)ccn4)c3)cccc2c1` [Example 23, 2-[1-(2-naphthalen-1-ylethyl)imidazol-4-yl]-4-(1H-triazol-4-yl)pyridine], the IC50 in experiment [1] is at most 100 nM; in experiment [2], at most 100 nM; in experiment [3] it was 100 to 1000 nM.

Regarding `CCOc1cc(-c2c(-c3cc(-c4c[nH]nn4)ccn3)ncn2C)ccc1F` [Example 25, 2-[5-(3-ethoxy-4-fluorophenyl)-1-methylimidazol-4-yl]-4-(1H-triazol-4-yl)pyridine], the IC50 is at most 100 nM in experiment [1], 100 to 1000 nM in experiment [2] and 1000 to 10000 nM in experiment [3].

With `Clc1ccccc1Cn1cnc(-c2cc(-c3c[nH]nn3)ccn2)c1` [Example 2, 2-[1-[(2-chlorophenyl)methyl]imidazol-4-yl]-4-(1H-triazol-4-yl)pyridine], the results for the IC50 in experiment [1], in experiment [2] and in experiment [3] were at most 100 nM, 100 to 1000 nM and 100 to 1000 nM, respectively.

For `c1ccc2c(c1)CCCC2Cn1cnc(-c2cc(-c3c[nH]nn3)ccn2)c1` (centres unmarked) [Example 8, 2-[1-(1,2,3,4-tetrahydronaphthalen-1-ylmethyl)imidazol-4-yl]-4-(1H-triazol-4-yl)pyridine], the figures for the half-maximal inhibitory concentration (IC50) in experiment [1], in experiment [2] and in experiment [3] were at most 100 nM, at most 100 nM and 100 to 1000 nM, respectively.

Regarding `CC(c1ccccc1)n1cnc(-c2cc(-c3c[nH]nn3)ccn2)c1` (centres unmarked) [Example 5, 2-[1-(1-phenylethyl)imidazol-4-yl]-4-(1H-triazol-4-yl)pyridine], the IC50 was at most 100 nM in experiment [1], at most 100 nM in experiment [2] and 100 to 1000 nM in experiment [3].

In the case of `Clc1cccc(Cn2cnc(-c3cc(-c4c[nH]nn4)ccn3)c2)c1Cl` [Example 21, 2-[1-[(2,3-dichlorophenyl)methyl]imidazol-4-yl]-4-(1H-triazol-4-yl)pyridine], the IC50 is at most 100 nM in experiment [1], at most 100 nM in experiment [2] and 100 to 1000 nM in experiment [3].

`COc1ccccc1CCn1cnc(-c2cc(-c3c[nH]nn3)ccn2)c1` [Example 7, 2-[1-[2-(2-methoxyphenyl)ethyl]imidazol-4-yl]-4-(1H-triazol-4-yl)pyridine]: the IC50 was at most 100 nM in experiment [1], at most 100 nM in experiment [2] and 100 to 1000 nM in experiment [3].

For the compound `c1ccc2c(c1)OCCC2Cn1cnc(-c2cc(-c3c[nH]nn3)ccn2)c1` (centres unmarked) [Example 12, 2-[1-(3,4-dihydro-2H-chromen-4-ylmethyl)imidazol-4-yl]-4-(1H-triazol-4-yl)pyridine], the IC50 in experiment [1] and in experiment [3] was at most 100 nM each time.

On to `N#Cc1[nH]nnc1-c1ccnc(-c2cn(Cc3cccc(Cl)c3Cl)cn2)c1` [Example 14, 4-[2-[1-[(2,3-dichlorophenyl)methyl]imidazol-4-yl]pyridin-4-yl]-1H-triazole-5-carbonitrile], for which the results for the IC50 in experiment [1] and in experiment [3] were at most 100 nM and 1000 to 10000 nM, respectively.

As for `COc1cc(-c2c(-c3cc(-c4c[nH]nn4)ccn3)ncn2C)ccc1F` [Example 24, 2-[5-(4-fluoro-3-methoxyphenyl)-1-methylimidazol-4-yl]-4-(1H-triazol-4-yl)pyridine], the IC50 in experiment [1] is at most 100 nM; in experiment [3] it was 100 to 1000 nM.

On to `Clc1ccccc1CCn1cnc(-c2cc(-c3c[nH]nn3)ccn2)c1` [Example 6, 2-[1-[2-(2-chlorophenyl)ethyl]imidazol-4-yl]-4-(1H-triazol-4-yl)pyridine], for which the IC50 in experiment [1], in experiment [2] and in experiment [3] was at most 100 nM in each case.

Turning to `Cn1cnc(-c2cc(-c3c[nH]nn3)ccn2)c1-c1ccc(F)cc1OCC1CC1` [Example 4, 2-[5-[2-(cyclopropylmethoxy)-4-fluorophenyl]-1-methylimidazol-4-yl]-4-(1H-triazol-4-yl)pyridine], the IC50 in experiment [1] was at most 100 nM; in experiment [2] it was at most 100 nM; in experiment [3], 1000 to 10000 nM.

As for `c1ccc(Oc2ccccc2CCn2cnc(-c3cc(-c4c[nH]nn4)ccn3)c2)cc1` [Example 18, 2-[1-[2-(2-phenoxyphenyl)ethyl]imidazol-4-yl]-4-(1H-triazol-4-yl)pyridine], the IC50 in experiment [1] is at most 100 nM; in experiment [3], 1000 to 10000 nM.
